Measurements published in patent publication US10994016B2, “Graphene oxide mediated cellular delivery of gadolinium-labeled molecules” (Northwestern University, priority 2015, dated 2021).

System: HeLa cells
Assay: Cell MR imaging of Magnevist-labeled cells in agarose phantoms (6-well labeling, Gd content by ICP-MS, 7 T)
Type: cell-based
Conditions: for Labeling achieved in the imaging study: after centrifugation; for Sensitivity for labeled cells on T1-weighted MRI: 7T
Method: HeLa cells were labeled by Magnevist with and without 150 nm GO co-incubation in 6-well plates. 2 plates seeded at 300,000 cells per well were needed to produce a sufficient number of cells for imaging. For the condition of GO co-incubation, 4500 μL of Magnevist-GO mixture was prepared at a concentration of 93.3 mM Magnevist and 27 μg/mL GO. The mixture was allowed to adsorb for at least 15 minutes. 375 μL of the Magnevist-GO mixture was added to 625 μL of media in each well to reach a final concentration of 35 mM Magnevist and 10 μg/mL GO. The cells were incubated with the mixture for […]. To harvest, cells were rinsed in-plate three times with 3000 μL PBS and trypsinized using 400 μL 0.25% TrypLE. After 5 minutes of incubation at 37° C., 600 μL of media was added to each well and mixed by a pipette to ensure that all cells were lifted into suspension. After combining all the wells into a 12 mL cell suspension, 3 aliquots of 25 μL each were obtained for cell counting by Guava. 175 μL of Guava ViaCount reagent was used for dilution. Additionally, 200 μL of the cell suspension was transferred to a 1.5-mL microcentrifuge tube, centrifuged at 1000 RPM for 5 min (Thermo Scientific, Model Legend Micro 21R), and re-suspended in 200 μL media to wash the cells. From the washed cell suspension, two aliquots of 25 μL each were used for cell counting by Guava and two aliquots of 25 μL each were used for Gd content analysis by ICP-MS. For the condition without GO co-incubation, the same procedures were followed except GO was replaced by Milli-Q water.
To create the cellular phantoms in agarose, a 1% media-agarose was prepared by mixing media and 2% low melting-point agarose (Life Technologies, Carlsbad, Calif.) in equal parts. At 7 T, the media-agrose has a T1 of 2952±152 ms and a T2 of 96±1 ms. In a 4 mL 15×45 mm glass vial, 2 mL of media-agarose was gelled at room temperature around a 5 mm OD NMR tube that was later removed to create a cylindrical bore. To fill the bore, the suspension of labeled cells was centrifuged at 1000 RPM for 5 minutes. After removing the supernatant, the cell pellet was re-suspended in media-agarose and further diluted to densities of 10,000, 5,000, 2,000, 500, and 100 cells/μL. 300 μL of each cell suspension was used to fill the bores in the 4 mL vials. After filling, the vials were cooled to 4° C. for 20 minutes to solidify the suspension. Approximately 3 mL of media was added on top of the media-agarose to completely fill the vial.
T1- and T2-weighted imaging were performed on a Bruker Pharmscan 7.05 T imaging spectrometer fitted with shielded gradient coils and a RF RES 300 1H 089/023 quadrature transceiver volume coil at 25° C. (Bruker BioSpin, Billerica, Mass.). Imaging was performed using a Rapid Acquisition with Refocused Echoes (RARE) pulse sequence. For T1-weighted imaging, the imaging parameters were TR=200 ms, TE=11.7 ms, NEX=1, FOV=21×21 mm^2, slice thickness=2 mm, and matrix size=256×256. For T2-weighted HDR, the imaging parameters were TR=5000 ms, TE=100 ms, NEX=1, FOV=15×15 mm^2, slice thickness=2 mm, and matrix size=256×256. The signal intensities of the acquired images were normalized such that the blank media-agarose has the same intensity across all images. Image processing was performed using ImageJ (NIH, Bethesda, Md.). T1 and T2-weighted images were processed separately.

Diethylenetriaminepentaacetic acid gadolinium(III) dihydrogen salt hydrate [Molecule 11]
Improvement of labeling with GO over Magnevist alone (35 mM Magnevist, 10 μg/mL GO): 57%
Cellular Gd(III) payload relative to Gd(III)-DNA gold nanoparticles, Gd(III)-labeled polymer-liposomes, gadonanotubes and gadofullerenols (GO co-incubation): 30-50 fold
Increase of MR sensitivity for labeled cells compared to Magnevist alone (GO co-incubation): ~10 fold
Labeling achieved in the imaging study (Magnevist alone (35 mM), without GO): 30 fmol Gd/cell
Enhancement by GO (imaging study, before centrifugation): 2.2 ×
Labeling achieved in the imaging study (with GO co-incubation (10 μg/mL), 35 mM Magnevist): 47 fmol Gd/cell
Sensitivity for labeled cells on T1-weighted MRI (with GO co-incubation (150 nm GO)): 500 cells/μL
Loading in the imaging study (with GO, before centrifugation): 153 fmol/cell
Sensitivity for labeled cells on T1-weighted MRI (without GO): 5000 cells/μL
Loading in the imaging study (without GO, before centrifugation): 69 fmol/cell
